Reference: PMC11394700, “Characterization of Stealth Liposome-Based Nanoparticles Encapsulating the ACAT1/SOAT1 Inhibitor F26: Efficacy and Toxicity Studies In Vitro and in Wild-Type Mice” (International Journal of Molecular Sciences, 2024)
pIC50: −log10 of the molar value. Values joined by “and” are separate entries in the source; they are usually repeats but may differ in a detail not shown here. Equal values may be shown once. Read-outs that look alike come from different tables or passages of the source. One block for each molecule: values may come before it.

How the values were obtained:
[1] = XTT cytotoxicity assay in MEFs; assay type: cell-based, mouse; conditions: mouse; MEFs, 150 µM, 24 h; read-out: Cell viability (XTT)
Protocol: (§1) An XTT cell proliferation assay kit (measures mitochondrial redox activity in metabolically active cells) was purchased from ATCC (Catalog No. 30-1011K, Manassas, VA, USA). Cell toxicity assessment was performed according to the manufacturer’s protocol. MEFs were seeded in a 96-well plate, 2500 cells per well, and cultured in full growth medium for 24 h. […] After the treatment, XTT reagent was added to each well, and the plates were incubated at 37 °C for 4 h. Following the incubation, absorbance was measured by using a BioTek Synergy Neo2 Hybrid Multimode Reader (BioTek, Winooski, VT, USA).

[2] = tested on: MEFs; test: XTT cytotoxicity assay in MEFs; assay type: cell-based, mouse; conditions: for Effect on cell viability (XTT): MEFs, concentrations below 50 µM, 24 h
Protocol: as §1

[3] = Plasma and brain pharmacokinetics after single IV dose (LC-MS/MS); assay type: in vivo, mouse; conditions: WT mice
Protocol: After intravenous administration of F26, mice were perfused with PBS at scheduled time points. Plasma and brain tissue were collected, flash-frozen in liquid nitrogen, and stored at −80 °C until analysis. […] Calibrator and quality control (QC) samples were prepared in the appropriate C57BL/6 mouse matrix: pooled plasma (anticoagulant: K3-EDTA, Innovative Research) and brain homogenate. The brain tissues were homogenized at 0.1 g/mL in deionized water using stainless-steel beads and a Next Advance Bullet Blender. Samples were cleaned up and analytes were extracted using protein precipitation followed by nitrogen dry down and reconstitution. […] Samples were vortex-mixed for 5 min then centrifuged for 10 min at 21,130× g and a total of 200 µL of clear supernatant was transferred to new tubes and dried under nitrogen in a water bath at 45 °C. The dried residues were reconstituted in 80:20 methanol:water (plasma: 400 µL, brain: 200 µL), vortex-mixed for 15 s and centrifuged at 21,130× g for 5 min. Finally, 100 µL of supernatant was transferred to amber autosampler vials, and 2 µL was injected into the LC-MS/MS system. For the quantitative analysis, each sample was prepared in triplicate and each replicate was injected onto the LC-MS/MS system three times. Liquid chromatography was performed on a Thermo Scientific Vanquish Flex UHPLC system using buffers A = 0.1% formic acid in water and B = 0.1% formic acid in methanol. A Thermo Scientific Accucore C18 50 × 2.1 mm 2.6 µm column fitted with a 10 × 2.1 mm 2.6 µm C18 guard cartridge maintained at 40 °C was used. […] A Thermo Scientific TSQ Quantis triple quadrupole mass spectrometer was operated in positive ion mode with a collision pressure of 1.5 mTorr for quantification. […] The heated electrospray ionization (H-ESI) source was operated with a spray voltage of 3500 V, vaporizer temperature 400 °C, ion transfer tube temperature 300 °C, sheath gas 23, aux gas 12 and ion sweep gas 0.5 (gases are arbitrary units). The quantitative range for F26 was 0.5–500 ng/mL for plasma samples and 0.3–200 ng/mL for brain samples. QC samples were prepared at 1.5, 150, and 400 ng/mL for plasma and at 0.9, 80, and 150 ng/mL for brain.

[4] = molecular target: T1, ACAT1 (Mus musculus, UniProt Q61263); test: ACAT activity by [3H] oleate pulse assay in MEFs; assay type: cell-based
T1 construct: MEFs predominantly express ACAT1, not ACAT2; endogenous in cells; host or cells: mouse embryonic fibroblasts (MEFs)
T1 sequence (Q61263 1-540): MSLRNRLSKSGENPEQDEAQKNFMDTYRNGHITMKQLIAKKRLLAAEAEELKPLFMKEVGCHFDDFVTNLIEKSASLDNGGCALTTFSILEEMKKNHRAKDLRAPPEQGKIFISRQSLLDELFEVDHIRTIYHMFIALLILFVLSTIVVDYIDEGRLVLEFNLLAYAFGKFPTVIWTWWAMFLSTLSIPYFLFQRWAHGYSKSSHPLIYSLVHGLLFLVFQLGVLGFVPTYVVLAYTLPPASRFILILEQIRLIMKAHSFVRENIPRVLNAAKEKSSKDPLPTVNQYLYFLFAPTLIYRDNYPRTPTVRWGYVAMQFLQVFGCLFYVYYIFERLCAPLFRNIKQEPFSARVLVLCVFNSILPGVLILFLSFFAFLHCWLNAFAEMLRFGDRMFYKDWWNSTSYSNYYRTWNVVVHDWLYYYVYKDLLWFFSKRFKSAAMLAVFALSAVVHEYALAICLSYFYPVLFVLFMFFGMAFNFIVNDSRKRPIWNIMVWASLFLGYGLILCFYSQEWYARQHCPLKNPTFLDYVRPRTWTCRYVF
Protocol: The [^3H] oleate pulse assay was performed as described [76, 77]. […] For the washout assay, cells were washed and incubated with a conditioned drug-free medium for a given amount of time. After the incubation, cells were pulsed with 10 µL of 10 mM [^3H] oleate/BSA (containing 4 µCi) for 2 h in a 37 °C water bath with 5% CO2. At the end of the pulse period, cells were placed on ice, washed three times with cold PBS, and lysed with 0.2 M NaOH. Lysates were aliquoted first for protein measurement and the remaining extract was neutralized to pH 7.0 by adding 3 M HCl and 1 M KH2PO4 at pH 7. Lipids were then extracted with chloroform:methanol (2:1) and water. Samples were vortex-mixed and centrifuged at 500 rpm for 10 min. The top phase was removed, and the bottom phase was blow-dried by nitrogen gas. Dried samples were dissolved in ethyl acetate and spotted on a thin-layer chromatography (TLC) plate (Miles Scientific Silica gel HL, Catalog No. P46911). The solvent system used was petroleum ether:ethyl ether:acetic acid (90:10:1). The cholesteryl ester band with an Rf value at 0.9 was visualized by iodine staining, scraped from the plate, and measured with a scintillation counter.

[5] = tested on: rat liver microsomal ACAT; parameters: method as in earlier work; conditions: F26 = compound 3 in ref; cited from earlier work
[6] = tested on: human ACAT2; conditions: cited from earlier work
[7] = tested on: primary mouse neuronal cells; conditions: concentrations up to 10 µM; cited from earlier work
[8] = WT mice, individual samples, cited from earlier work
[9] = 4 h after single IV NP F26 51 mg/kg, individual samples, 51 mg/kg
[10] = 12 h after single IV NP F26 51 mg/kg, individual samples, 51 mg/kg
[11] = 24 h after single IV NP F26 51 mg/kg, individual samples, 51 mg/kg
[12] = 48 h after single IV NP F26 51 mg/kg, individual samples, 51 mg/kg
[13] = 4 h after single IV NP F12511 46 mg/kg
[14] = 12 h after single IV NP F12511 46 mg/kg
[15] = 24 h after single IV NP F12511 46 mg/kg

Brain Concentration [3, 9]: 1148 ng/g
Brain-to-Plasma Ratio [3, 9]: 0.069
Plasma Concentration [3, 9]: 16,540 ng/mL
Brain Concentration [3, 10]: 529 ng/g
Brain-to-Plasma Ratio [3, 10]: 0.125
Plasma Concentration [3, 10]: 4243 ng/mL
Brain Concentration [3, 11]: 347 ng/g
Brain-to-Plasma Ratio [3, 11]: 0.283
Plasma Concentration [3, 11]: 3218 ng/mL and 1226 ng/mL
Brain Concentration [3, 12]: 86 ng/g
Brain-to-Plasma Ratio [3, 12]: 1.377
Plasma Concentration [3, 12]: 62 ng/mL
concentration at 4 h ([3]; C57BL/6, mouse, brain, iv, 51 mg/kg, 4 h after single IV NP F26 51 mg/kg, individual samples, read-out: Brain Concentration): 1120 ng/g
Kp at 4 h ([3]; C57BL/6, mouse, brain, iv, 51 mg/kg, 4 h after single IV NP F26 51 mg/kg, individual samples, read-out: Brain-to-Plasma Ratio): 0.061
concentration at 12 h ([3]; C57BL/6, mouse, brain, iv, 51 mg/kg, 12 h after single IV NP F26 51 mg/kg, individual samples, read-out: Brain Concentration): 671 ng/g
Kp at 12 h ([3]; C57BL/6, mouse, brain, iv, 51 mg/kg, 12 h after single IV NP F26 51 mg/kg, individual samples, read-out: Brain-to-Plasma Ratio): 0.147
concentration at 24 h ([3]; C57BL/6, mouse, brain, iv, 51 mg/kg, 24 h after single IV NP F26 51 mg/kg, individual samples): 571 ng/g
Kp at 24 h ([3]; C57BL/6, mouse, brain, iv, 51 mg/kg, 24 h after single IV NP F26 51 mg/kg, individual samples, read-out: Brain-to-Plasma Ratio): 0.178
concentration at 48 h ([3]; C57BL/6, mouse, brain, iv, 51 mg/kg, 48 h after single IV NP F26 51 mg/kg, individual samples, read-out: Brain Concentration): 59 ng/g
Kp at 48 h ([3]; C57BL/6, mouse, brain, iv, 51 mg/kg, 48 h after single IV NP F26 51 mg/kg, individual samples, read-out: Brain-to-Plasma Ratio): 1.6
Cmax ([3]; C57BL/6, mouse, brain, single IV NP F26 51 mg/kg, read-out: Cmax in brain): 1130 ng/g
half-life ([3]; C57BL/6, mouse, brain, single IV NP F26 51 mg/kg, read-out: T1/2 in brain (converted)): 10.5 h
Tmax ([3]; C57BL/6, mouse, brain, single IV NP F26 51 mg/kg, read-out: Tmax in brain): 4 h
concentration at 4 h ([3]; C57BL/6, mouse, plasma, iv, 51 mg/kg, 4 h after single IV NP F26 51 mg/kg, individual samples, read-out: Plasma Concentration): 18500 ng/mL
concentration at 12 h ([3]; C57BL/6, mouse, plasma, iv, 51 mg/kg, 12 h after single IV NP F26 51 mg/kg, individual samples, read-out: Plasma Concentration): 4570 ng/mL
concentration at 48 h ([3]; C57BL/6, mouse, plasma, iv, 51 mg/kg, 48 h after single IV NP F26 51 mg/kg, individual samples, read-out: Plasma Concentration): 37 ng/mL
Tmax ([3]; C57BL/6, mouse, plasma, single IV NP F26 51 mg/kg, non-compartmental, n = 2, read-out: Tmax in plasma): 4 h
AUC(0-t) ([3]; C57BL/6, mouse, plasma, single IV NP F26 51 mg/kg, read-out: AUClast in plasma): 229 µg·h/mL
Cmax ([3]; C57BL/6, mouse, plasma, single IV NP F26 51 mg/kg, read-out: Cmax in plasma): 17500 ng/mL
half-life ([3]; C57BL/6, mouse, plasma, single IV NP F26 51 mg/kg, read-out: T1/2 in plasma (converted)): 4.75 h
AUClast in brain ([3]; single IV NP F26 51 mg/kg): 23,398.14 ng.h/g
pIC50 ([4]; [3H] oleate pulse assay, MEFs (predominantly ACAT1), read-out: IC50 against ACAT in MEFs): 8.52
Potency as ACAT1 inhibitor compared to F12511 (fold) ([4]; from IC50 values in MEFs): close to seven-fold
SMILES: CCCCCCCCCCCCS(=O)(=O)[C@](F)(C(=O)Nc1cc(C)c(O)c(C)c1C)c1ccccc1 [F26]
viability at 24 h, 150 µM [1]: 81%
Concentration required to induce cell toxicity relative to that for ACAT1 inhibition ([2]; 50 µM or higher vs IC50 in MEFs): over 1000 times
Effect on cell viability (XTT) [2]: neither F12511 nor F26 affected cell viability
Potency for inhibiting rat liver microsomal ACAT [5]: more potent than F12511

SMILES: CCCCCCCCCCCCS[C@H](C(=O)Nc1cc(C)c(O)c(C)c1C)c1ccccc1 [F12511, eflucimibe]
pIC50 [6]: 6.96
Effect on cell viability (XTT) [2]: neither F12511 nor F26 affected cell viability
Toxicity in primary mouse neuronal cells [7]: no detectable toxicity
Brain Concentration [8, 13]: 56 ng/g and 83 ng/g and 98 ng/g and 95 ng/g
Plasma Concentration [8, 13]: 11,185 ng/mL and 13,184 ng/mL and 12,883 ng/mL and 31,224 ng/mL
Brain Concentration [8, 14]: 25 ng/g and 26 ng/g
Plasma Concentration [8, 14]: 345 ng/mL and 487 ng/mL
Brain Concentration [8, 15]: 7 ng/g and 9 ng/g
Plasma Concentration [8, 15]: 101 ng/mL and 21 ng/mL
